A short description of series [1]: Antifungal activity against wild-type Candida albicans ATCC 32354 assessed as growth inhibition using alamar blue staining measured after 14 to 16 hrs by microdilution assay. It counts as functional. (In general: Alamar Blue is a resazurin reagent that responds to reducing activity.)
Series [2] in a line: Antifungal activity against Trichophyton assessed as growth inhibition using alamar blue staining measured after 14 to 16 hrs by microdilution assay. It is filed as functional.
Series [3] relates to Aspergillus. Nature of the series: Antifungal activity against Aspergillus assessed as growth inhibition using alamar blue staining measured after 14 to 16 hrs by microdilution assay. It is filed as functional.
Series [4] in a line: Cytotoxicity against mouse P388 cells. It is filed as functional, cell-based.
Series [5] addresses Lipid bilayer. Kind of series: Binding affinity to POPC large unilamellar vesicle in pH 7.4 phosphate buffer by SPR analysis. (In general: SPR reads the build-up and loss of mass on a sensor chip optically.)
The nature of series [6]: Binding affinity to cholesterol containing DMPC-d54/DHPC-d22 bicelles assessed as broadening of aromatic/olefinic signals at 6.5 to 7.6 ppm measured at 200 uM by 1H NMR spectroscopy.
Series [7] is described as follows: Binding affinity to cholesterol containing DMPC-d54/DHPC-d22 bicelles assessed as […] measured at ratio of 1:10 Mn2+ to compound by 1H NMR spectroscopy relative to control.
Series [8] can be described thus: Binding affinity to cholesterol containing DMPC-d54/DHPC-d22 bicelles assessed as […] measured at ratio of 4:10 Mn2+ to compound by 1H NMR spectroscopy relative to control.
Series [9] in a line: Binding affinity to DMPC-d54/DHPC-d22 bicelles assessed as […] measured at ratio of 4:10 Mn2+ to compound by 1H NMR spectroscopy relative to control.
Series [10] is described as follows: Induction of membrane damage in POPC/cholesterol GUV model assessed as membrane curvature at 20 uM after 13 to 55 mins by TNM-DCCH staining based confocal microscopic analysis.
Series [11] can be described thus: Binding affinity to cholesterol containing POPC large unilamellar vescicle in pH 7.4 phosphate buffer by SPR analysis.
The nature of series [12]: Diffusion coefficient of the compound D2O at 11 mM and 25 degC by 1H NMR spectroscopy. It is filed as physicochemical. To be noted: 11000 µM.
Series [13] is described as follows: Aqueous diffusion coefficient of compound in 98:2 ratio of D2O/H2O solvent system at 25 degC by 1H NMR DOSY spectroscopy. To be noted: buffer. It is filed as physicochemical.

Molecules are shown by their SMILES. Calls of active or inactive are those of the source. The calls are words filed in the database; no cut-off is given here.

As a reminder, the IC50 is the point on the concentration scale where inhibition reaches its midpoint. Turning to `CC(/C=C/c1ccc(Br)cc1)=C\[C@H](O)[C@@H]1CC(=O)N[C@@H](CO)C(=O)N[C@@H]2Cn3cc([n+]([C@H]4OC[C@H](O)[C@H](O)[C@H]4O)c3)C[C@H](NC(=O)C[C@H](O)C[C@@H](C(=O)[O-])NC(=O)CCNC(=O)[C@H](Cc3ccc(Br)cc3)NC(=O)[C@H]([C@@H](O)C(N)=O)NC(=O)[C@H](CC(N)=O)NC2=O)C(=O)N[C@@H]([C@H](C)O)C(=O)N[C@@H](CO)C(=O)N[C@@H](Cc2ccccc2)C(=O)N1`, the IC50 is 2000 to 7000 nM in [1], 2000 to 7000 nM in series [2], 2000 to 7000 nM in [3] and 500 to 2800 nM in series [4].
On to `CC(/C=C/c1ccc(Br)cc1)=C\[C@H](O)[C@@H]1CC(=O)N[C@@H](CO)C(=O)N[C@@H]2C[n+]3c[nH]c(c3)C[C@H](NC(=O)C[C@H](O)C[C@@H](C(=O)[O-])NC(=O)CCNC(=O)[C@H](Cc3ccccc3)NC(=O)[C@H]([C@@H](O)C(N)=O)NC(=O)[C@H](CC(N)=O)NC2=O)C(=O)N[C@@H]([C@H](C)O)C(=O)N[C@@H](CO)C(=O)N[C@@H](Cc2ccccc2)C(=O)N1`, for which the IC50 in [1] was 2000 to 7000 nM; in series [2], 2000 to 7000 nM; in series [3], 2000 to 7000 nM; in series [4], 500 to 2800 nM.
Consider `CC(/C=C/c1ccc(Br)cc1)=C\[C@H](O)[C@@H]1CC(=O)N[C@@H](CO)C(=O)N[C@@H]2Cn3cc([n+]([C@@H]4O[C@H](CO)[C@H](O)[C@H](O)[C@H]4O)c3)C[C@H](NC(=O)C[C@H](O)C[C@@H](C(=O)[O-])NC(=O)CCNC(=O)[C@H](Cc3ccc(Br)cc3)NC(=O)[C@H]([C@@H](O)C(N)=O)NC(=O)[C@H](CC(N)=O)NC2=O)C(=O)N[C@@H]([C@H](C)O)C(=O)N[C@@H](CO)C(=O)N[C@@H](Cc2ccccc2)C(=O)N1`, for which the IC50 in series [1] lay within 2000 to 7000 nM; in series [2] it was 2000 to 7000 nM; in series [3] it was 2000 to 7000 nM; in [4] it was 500 to 2800 nM.
As for `CC(/C=C/c1ccc(Br)cc1)=C\[C@H](O)[C@@H]1CC(=O)N[C@@H](CO)C(=O)N[C@@H]2C[n+]3c[nH]c(c3)C[C@H](NC(=O)C[C@H](O)C[C@@H](C(=O)[O-])NC(=O)[C@@H](O)CNC(=O)[C@H]([C@@H](C)c3ccc(Br)cc3)NC(=O)[C@H]([C@@H](O)C(N)=O)NC(=O)[C@H](CC(N)=O)NC2=O)C(=O)N[C@@H]([C@H](C)O)C(=O)N[C@@H](CO)C(=O)N[C@@H](Cc2ccccc2)C(=O)N1`, the IC50 in series [1] lay within 2000 to 7000 nM; in [2], 2000 to 7000 nM; in series [3] it was 2000 to 7000 nM; in series [4], 500 to 2800 nM.
As usually defined, the Kd is a measure of binding affinity in units of concentration. Read a low Kd as tighter binding. Turning to `CC(/C=C/c1ccccc1)=C\[C@H](O)[C@@H]1CC(=O)N[C@@H](CO)C(=O)N[C@@H]2Cn3cc([n+]([C@@H]4O[C@H](CO)[C@H](O)[C@H](O)[C@H]4O)c3)C[C@H](NC(=O)C[C@H](O)C[C@@H](C(=O)[O-])NC(=O)[C@@H](O)CNC(=O)[C@H]([C@@H](C)c3ccc(Br)cc3)NC(=O)[C@H]([C@@H](O)C(N)=O)NC(=O)[C@H](CC(N)=O)NC2=O)C(=O)N[C@@H]([C@H](C)O)C(=O)N[C@@H](CO)C(=O)N[C@@H](Cc2ccccc2)C(=O)N1`, the IC50 in series [1] is 2000 to 7000 nM; in [2] it was 2000 to 7000 nM; in [3], 2000 to 7000 nM; in series [4], 500 to 2800 nM. In addition, the equilibrium dissociation constant (Kd) in series [5] is 420000 nM; in series [11], 9200 nM. Also, the outcome in series [6] and in series [10] was Active. Besides, the Ratio in series [7] was 0.85; in series [8], 0.54 to 0.61; in [9], 0.36 to 0.46.
In the case of `OC[C@H]1O[C@@H]2O[C@H]3[C@H](O)[C@@H](O)[C@@H](O[C@H]4[C@H](O)[C@@H](O)[C@@H](O[C@H]5[C@H](O)[C@@H](O)[C@@H](O[C@H]6[C@H](O)[C@@H](O)[C@@H](O[C@H]7[C@H](O)[C@@H](O)[C@@H](O[C@H]8[C@H](O)[C@@H](O)[C@@H](O[C@H]1[C@H](O)[C@H]2O)O[C@@H]8CO)O[C@@H]7CO)O[C@@H]6CO)O[C@@H]5CO)O[C@@H]4CO)O[C@@H]3CO` [BETADEX], the D in [12] worked out at 2.64 ×10⁻¹⁰ m2/s; in [13], 2.63 ×10⁻¹⁰ m2/s.
Regarding `CC(/C=C/c1ccc(Br)cc1)=C\[C@H](O)[C@@H]1CC(=O)N[C@@H](CO)C(=O)N[C@@H]2C[n+]3c[nH]c(c3)C[C@H](NC(=O)C[C@H](O)C[C@@H](C(=O)[O-])NC(=O)CCNC(=O)[C@H](Cc3ccc(Br)cc3)NC(=O)[C@H]([C@@H](O)C(N)=O)NC(=O)[C@H](CC(N)=O)NC2=O)C(=O)N[C@@H]([C@H](C)O)C(=O)N[C@@H](CO)C(=O)N[C@@H](Cc2ccccc2)C(=O)N1`, the IC50 in series [1] fell in the range of 2000 to 7000 nM; in [2], 2000 to 7000 nM; in [3], 2000 to 7000 nM; in series [4], 500 to 2800 nM.
